Assay results: patent US20070179125A1, “Aminopyrimidines useful as kinase inhibitors” (priority 2005, published 2007)

Columns and labels:
Assay type in all cases: biochemical
Aurora-2 (Aurora A) = target: T1, Aurora-2 (Aurora A) (Homo sapiens, UniProt O14965); test: Aurora-2 (Aurora A) inhibition assay, coupled enzyme; details: 400 μM ATP, 570 μM Kemptide, 40 nM Aurora-2, 30° C.
T1 sequence (O14965 1-403): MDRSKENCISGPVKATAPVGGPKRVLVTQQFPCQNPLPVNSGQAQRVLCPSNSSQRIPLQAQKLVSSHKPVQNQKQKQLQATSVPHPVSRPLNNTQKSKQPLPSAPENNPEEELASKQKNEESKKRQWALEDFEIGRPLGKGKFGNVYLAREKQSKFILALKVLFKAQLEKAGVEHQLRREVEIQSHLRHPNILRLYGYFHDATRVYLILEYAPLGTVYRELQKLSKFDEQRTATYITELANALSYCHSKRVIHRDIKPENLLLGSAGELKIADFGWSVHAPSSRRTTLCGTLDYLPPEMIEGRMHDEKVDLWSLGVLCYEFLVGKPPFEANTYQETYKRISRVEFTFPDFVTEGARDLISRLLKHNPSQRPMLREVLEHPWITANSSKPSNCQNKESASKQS
Protocol: Compounds were screened for their ability to inhibit Aurora-2 using a standard coupled enzyme assay (Fox et al., Protein Sci., (1998) 7, 2249). Assays were carried out in a mixture of 100 mM Hepes (pH7.5), 10 mM MgCl2, 1 mM DTT, 25 mM NaCl, 2.5 mM phosphoenolpyruvate, 300 μM NADH, 30 μg/ml pyruvate kinase and 10 μg/ml lactate dehydrogenase. Final substrate concentrations in the assay are 400 μM ATP (Sigma Chemicals) and 570 μM peptide (Kemptide, American Peptide, Sunnyvale, Calif.). Assays were carried out at 30° C. and in the presence of 40 nM Aurora-2.
An assay stock buffer solution was prepared containing all of the reagents listed above, with the exception of Aurora-2 and the test compound of interest. 55 μl of the stock solution was placed in a 96 well plate followed by addition of 2 μl of DMSO stock containing serial dilutions of the test compound (typically starting from a final concentration of 7.5 μM). The plate was preincubated for 10 minutes at 30° C. and the reaction initiated by addition of 10 μl of Aurora-2. Initial reaction rates were determined with a Molecular Devices SpectraMax Plus plate reader over a 10 minute time course. IC50 and Ki data were calculated from non-linear regression analysis using the Prism software package (GraphPad Prism version 3.0cx for Macintosh, GraphPad Software, San Diego Calif., USA).

human Itk kinase = target: T2, human Itk kinase (Homo sapiens, UniProt Q08881); test: Itk inhibition assay, radioactivity-based; details: Ki(app); 7.5 μM ATP, 3 μM SAM68 peptide, 50 nM Itk, 25° C.
T2 sequence (Q08881 1-620): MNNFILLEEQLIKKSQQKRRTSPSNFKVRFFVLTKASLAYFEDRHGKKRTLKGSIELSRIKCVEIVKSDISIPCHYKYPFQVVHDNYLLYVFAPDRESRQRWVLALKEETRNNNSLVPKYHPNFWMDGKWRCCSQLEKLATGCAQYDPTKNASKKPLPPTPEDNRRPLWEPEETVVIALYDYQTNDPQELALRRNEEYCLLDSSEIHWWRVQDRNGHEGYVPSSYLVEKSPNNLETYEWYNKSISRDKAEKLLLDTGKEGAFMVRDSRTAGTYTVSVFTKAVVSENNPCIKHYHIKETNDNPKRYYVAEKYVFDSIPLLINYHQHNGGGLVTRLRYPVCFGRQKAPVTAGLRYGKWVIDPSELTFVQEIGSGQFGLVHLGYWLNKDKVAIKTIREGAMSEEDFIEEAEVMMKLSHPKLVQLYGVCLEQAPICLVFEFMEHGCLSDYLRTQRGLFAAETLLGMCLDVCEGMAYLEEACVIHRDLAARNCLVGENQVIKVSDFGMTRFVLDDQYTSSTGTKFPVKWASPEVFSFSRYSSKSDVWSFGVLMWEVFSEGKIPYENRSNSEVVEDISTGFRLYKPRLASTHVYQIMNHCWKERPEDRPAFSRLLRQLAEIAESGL
Protocol: The compounds of the present invention were evaluated as inhibitors of human Itk kinase using a radioactivity-based assay.
Assays were carried out in a mixture of 20 mM MOPS (pH 7.0), 10 mM MgCl2, 0.1% BSA and 1 mM DTT. Final substrate concentrations in the assay were 7.5 μM [γ-^33P]ATP (400 μCi ^33P ATP/μmol ATP, Amersham Pharmacia Biotech/Sigma Chemicals) and 3 μM peptide (SAM68 protein Δ332-443). Assays were carried out at 25° C. in the presence of 50 nM Itk. An assay stock buffer solution was prepared containing all of the reagents listed above, with the exception of ATP and the test compound of interest. 50 μL of the stock solution was placed in a 96 well plate followed by addition of 2 μL of DMSO stock containing serial dilutions of the test compound (typically starting from a final concentration of 50 μM with 2-fold serial dilutions) in duplicate (final DMSO concentration 2%). The plate was pre-incubated for 10 minutes at 25° C. and the reaction initiated by addition of 50 μL [γ-^33P]ATP (final concentration 7.5 μM).
The reaction was stopped after 10 minutes by the addition of 100 μL 0.2M phosphoric acid+0.01% TWEEN 20. […]
Ki(app) data were calculated from non-linear regression analysis of the initial rate data using the Prism software package (GraphPad Prism version 3.0cx for Macintosh, GraphPad Software, San Diego Calif., USA).

JAK-2 enzyme = JAK-2 enzyme (Homo sapiens, UniProt O60674); test: JAK2 inhibition assay; details: 12 μM ATP, 15 μM poly(Glu)4Tyr
Protocol: (§1) Compounds were screened for their ability to inhibit JAK using the assay shown below. Reactions were carried out in a kinase buffer containing 100 mM HEPES (pH 7.4), 1 mM DTT, 10 mM MgCl2, 25 mM NaCl, and 0.01% BSA.
(§2) Substrate concentrations in the assay were 5 μM ATP (200 uCi/μmole ATP) and 1 μM poly(Glu)4Tyr. Reactions were carried out at 25° C. and 1 nM JAK3.
(§3) To each well of a 96 well polycarbonate plate was added 1.5 μl of a candidate JAK3 inhibitor along with 50 μl of kinase buffer containing 2 μM poly(Glu)4Tyr and 10 μM ATP. This was then mixed and 50 μl of kinase buffer containing 2 nM JAK3 enzyme was added to start the reaction. After 20 minutes at room temperature (25 C), the reaction was stopped with 50 μl of 20% trichloroacetic acid (TCA) that also contained 0.4 mM ATP. The entire contents of each well were then transferred to a 96 well glass fiber filter plate using a TomTek Cell Harvester. After washing, 60 μl of scintillation fluid was added and ^33P incorporation detected on a Perkin Elmer TopCount.
The assays are as described above in Example 3 except that JAK-2 enzyme is used, the final poly(Glu)4Tyr concentration is 15 μM, and final ATP concentration is 12 μM.

Aurora-1 (Aurora B) = Aurora-1 (Aurora B) (Homo sapiens, UniProt Q96GD4); test: Aurora-1 (Aurora B) inhibition assay (radiometric); details: 800 μM ATP, Kemptide, 25° C.
Protocol: An assay buffer solution was prepared which consisted of 25 mM HEPES (pH 7.5), 10 mM MgCl2, 0.1% BSA and 10% glycerol. A 22 nM Aurora-B solution, also containing 1.7 mM DTT and 1.5 mM Kemptide (LRRASLG), was prepared in assay buffer. To 22 μL of the Aurora-B solution, in a 96-well plate, was added 2 μl of a compound stock solution in DMSO and the mixture allowed to equilibrate for 10 minutes at 25° C. The enzyme reaction was initiated by the addition of 16 μl stock [γ-^33P]-ATP solution (˜20 nCi/μL) prepared in assay buffer, to a final assay concentration of 800 μM. The reaction was stopped after 3 hours by the addition of 16 μL 500 mM phosphoric acid and the levels of ^33P incorporation into the peptide substrate were determined by the following method.
A phosphocellulose 96-well plate (Millipore, Cat no. MAPHNOB50) was pre-treated with 100 μL of a 100 mM phosphoric acid prior to the addition of the enzyme reaction mixture (40 μL). […] Levels of non-enzyme catalyzed background radioactivity were determined by adding 16 μL of the 500 mM phosphoric acid to control wells, containing all assay components (which acts to denature the enzyme), prior to the addition of the [γ-^33P]-ATP solution. Levels of enzyme catalyzed ^33P incorporation were calculated by subtracting mean background counts from those measured at each inhibitor concentration. […]

JAK3 = target: T3, JAK3 (Homo sapiens, UniProt P52333); test: JAK3 inhibition assay; details: 5 μM ATP, 1 μM poly(Glu)4Tyr, 1 nM JAK3, 25° C.
T3 sequence (P52333 1-1124): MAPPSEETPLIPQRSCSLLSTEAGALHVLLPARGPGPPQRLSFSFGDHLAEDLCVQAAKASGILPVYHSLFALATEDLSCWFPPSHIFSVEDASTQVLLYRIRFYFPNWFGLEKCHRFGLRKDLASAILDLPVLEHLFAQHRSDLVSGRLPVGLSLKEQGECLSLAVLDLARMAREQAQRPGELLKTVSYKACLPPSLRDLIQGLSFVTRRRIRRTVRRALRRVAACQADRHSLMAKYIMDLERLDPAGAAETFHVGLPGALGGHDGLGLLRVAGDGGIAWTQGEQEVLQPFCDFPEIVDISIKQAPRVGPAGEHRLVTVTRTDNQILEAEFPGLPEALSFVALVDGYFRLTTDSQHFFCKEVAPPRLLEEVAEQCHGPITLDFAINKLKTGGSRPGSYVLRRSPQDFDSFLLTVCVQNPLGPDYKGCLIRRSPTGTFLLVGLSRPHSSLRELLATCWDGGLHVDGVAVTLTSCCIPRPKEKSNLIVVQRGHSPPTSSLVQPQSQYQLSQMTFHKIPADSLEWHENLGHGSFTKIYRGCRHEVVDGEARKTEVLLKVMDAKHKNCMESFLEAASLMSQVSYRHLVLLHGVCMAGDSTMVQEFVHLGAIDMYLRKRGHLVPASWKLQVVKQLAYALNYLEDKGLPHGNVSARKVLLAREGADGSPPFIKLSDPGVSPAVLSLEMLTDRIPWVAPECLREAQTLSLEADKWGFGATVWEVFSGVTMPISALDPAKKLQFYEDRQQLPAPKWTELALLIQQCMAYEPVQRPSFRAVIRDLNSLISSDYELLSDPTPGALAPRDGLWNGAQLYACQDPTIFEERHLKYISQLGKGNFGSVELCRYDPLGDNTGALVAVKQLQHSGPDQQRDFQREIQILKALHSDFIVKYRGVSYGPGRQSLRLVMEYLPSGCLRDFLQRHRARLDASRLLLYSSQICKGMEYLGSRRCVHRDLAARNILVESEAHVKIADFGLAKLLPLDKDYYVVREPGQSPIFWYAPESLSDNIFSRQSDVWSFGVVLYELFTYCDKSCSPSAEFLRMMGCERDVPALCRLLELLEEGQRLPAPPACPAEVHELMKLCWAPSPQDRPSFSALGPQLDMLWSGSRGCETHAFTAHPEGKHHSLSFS
Protocol: as §1, §2, §3

Chain of Aurora-1 (Aurora B) (Q96GD4 whole entry, species assumed): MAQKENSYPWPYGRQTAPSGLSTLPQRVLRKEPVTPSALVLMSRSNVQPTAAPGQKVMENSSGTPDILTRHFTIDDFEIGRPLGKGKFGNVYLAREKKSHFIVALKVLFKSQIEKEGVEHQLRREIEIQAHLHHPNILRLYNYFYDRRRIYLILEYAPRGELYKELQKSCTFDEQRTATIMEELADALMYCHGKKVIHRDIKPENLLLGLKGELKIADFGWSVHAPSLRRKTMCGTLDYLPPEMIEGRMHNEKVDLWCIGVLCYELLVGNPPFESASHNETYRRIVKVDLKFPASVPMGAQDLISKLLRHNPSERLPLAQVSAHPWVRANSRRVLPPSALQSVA
Chain of JAK-2 enzyme (O60674 whole entry, species assumed): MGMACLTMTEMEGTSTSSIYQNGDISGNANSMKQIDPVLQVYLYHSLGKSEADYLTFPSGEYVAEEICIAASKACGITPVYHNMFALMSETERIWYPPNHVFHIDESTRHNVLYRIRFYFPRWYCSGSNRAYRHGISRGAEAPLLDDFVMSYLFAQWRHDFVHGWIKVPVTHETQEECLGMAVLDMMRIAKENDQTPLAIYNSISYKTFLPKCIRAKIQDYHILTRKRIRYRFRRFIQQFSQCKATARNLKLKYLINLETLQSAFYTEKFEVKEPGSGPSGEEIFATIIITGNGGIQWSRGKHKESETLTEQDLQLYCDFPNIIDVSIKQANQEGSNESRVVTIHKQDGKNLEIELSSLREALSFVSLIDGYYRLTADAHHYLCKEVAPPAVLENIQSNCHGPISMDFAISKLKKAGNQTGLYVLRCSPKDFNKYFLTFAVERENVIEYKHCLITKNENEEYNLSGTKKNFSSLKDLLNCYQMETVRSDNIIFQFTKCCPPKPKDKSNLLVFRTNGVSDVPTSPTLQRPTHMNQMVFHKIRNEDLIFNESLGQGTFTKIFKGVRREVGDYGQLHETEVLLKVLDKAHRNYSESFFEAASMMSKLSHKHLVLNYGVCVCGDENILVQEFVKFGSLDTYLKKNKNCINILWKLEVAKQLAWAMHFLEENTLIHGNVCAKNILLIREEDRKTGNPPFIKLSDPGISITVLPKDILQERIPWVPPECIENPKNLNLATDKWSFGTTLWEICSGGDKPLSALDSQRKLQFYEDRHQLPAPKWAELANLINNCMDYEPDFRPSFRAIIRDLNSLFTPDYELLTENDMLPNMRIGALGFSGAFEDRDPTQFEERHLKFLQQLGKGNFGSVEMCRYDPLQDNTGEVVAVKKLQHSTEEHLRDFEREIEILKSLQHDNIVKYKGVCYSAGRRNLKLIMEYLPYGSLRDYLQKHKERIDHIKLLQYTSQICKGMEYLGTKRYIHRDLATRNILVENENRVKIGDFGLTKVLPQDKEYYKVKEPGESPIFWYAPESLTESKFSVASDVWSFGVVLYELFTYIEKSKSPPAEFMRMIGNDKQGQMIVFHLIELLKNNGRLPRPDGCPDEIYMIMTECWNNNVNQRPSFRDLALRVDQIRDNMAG

| Ki (Aurora-2 (Aurora A)) [µM] | Ki (human Itk kinase) [µM] | Ki (JAK-2 enzyme) [µM] | SMILES | Ki (Aurora-1 (Aurora B)) [µM] | Ki (JAK3) [µM] |
| --- | --- | --- | --- | --- | --- |
| < 0.05 | < 1 | < 0.25 | Cc1cc(Nc2cc(N3CCC3)nc(O[C@H]3CCN(C(=O)OC(C)(C)C)C3)n2)[nH]n1 [Compound I-1, (S)-3-[4-Azetidin-1-yl-6-(5-methyl-2H-pyrazol-3-ylamino)-pyrimidin-2-yloxy]-pyrrolidine-1-carboxylic acid tert-butyl ester] |  |  |
|  |  |  | Cc1cc(Nc2cc(N3CC(F)(C4CC4)C3)nc(O[C@H]3CCN(C(=O)c4cc(Cl)ccc4F)C3)n2)[nH]n1 [Compound I-3, (S)-(5-chloro-2-fluorophenyl)(3-(4-(3-cyclopropyl-3-fluoroazetidin-1-yl)-6-(3-methyl-1H-pyrazol-5-ylamino)pyrimidin-2-yloxy)pyrrolidin-1-yl)methanone] | < 0.025 | < 0.25 |
